Measured values taken from patent US20260263651A1, “WOUND DRESSING” (UNIVERSITY OF SUNDERLAND, priority 2023, published 2026).

Legend:
Assay type in all cases: cell-based
Staphylococcus aureus [1] = assay: Microbiological evaluation of overnight bacteria suspensions, modified alginate wound dressing with absorbed substrate on agar; conditions: SA overnight culture, 24 h incubation at 37° C.
Protocol: (§1) ACTIVHEAL® simply A (10×20 cm) non-adhesive foam samples were provided by Advanced Medical Solutions Ltd. The wound dressings were cut into ~5-10×5-10 mm squares, using an ethanol washed pair of scissors. A maximum of 0.20 g of the material was added into 10 mL DI water, and the pH was adjusted to ~3 by the addition of 0.1 M aq. HCl solution. The solution was stirred for 10 mins at room temperature, followed by the addition of 0.33 g EDC •HCl (1.7 mmol) and the pH was maintained at ~3 by the addition of 0.1 M aq. HCl solution. The solution was stirred at room temperature for 10 mins followed by the addition of 0.88 g compound 8 which was dissolved in DMSO or DMF. The mixture was stirred at room temperature for 48 h. The wound dressings were filtered and were washed with ethanol. To ensure the full removal of any non-coupled amide (8), the foam samples were resuspended in ethanol, stirred for 10 mins and filtered, and this process was repeated until the amide (8) was not detectable from the filtrate (this could be maintained by TLC or HPLC evaluation). The samples were dried in a vacuum oven for 3-4 h.
(§2) The aqueous solution of 3a or 3b was prepared by the following: the desired amount of the enzymatic substrate (3.0 mg for 300 mg/L, 6.0 mg for 600 mg/L, 9.0 mg for 900 mg/L, 15.0 mg for 1500 mg/L, and 30.0 mg for 3000 mg/L) was weighed out on a 4 decimal place balance within ±0.3 mg error limit into a 10 mL volumetric flask and was adjusted to 10.0 mL with DI water. The solutions were absorbed into the foam samples and dried in a vacuum oven at 40° C. overnight.
To model fluid exudate from a chronic wound, the wound dressing made according to ‘Modification of ActivHeal® Alginate’, above, was placed into an agar plate and the test pathogen was smeared over the surface of the agar.
The enzymatic substrates were tested in 4 different concentrations (300, 600, 900 and 3000 mg/L) using DI water as a solvent, and the solutions were absorbed into the wound dressing samples, which were dried overnight under vacuum at 40° C.
Two Gram negative strains (Escherichia coli—EC and Pseudomonas aeruginosa—PSA) and a Gram positive bacteria (Staphylococcus aureus—SA) were evaluated against the dimethyl (3a) and the diethyl (3b) substituted substrate. The overnight cultures were directly smeared from LB broth onto Columbia blood agar without measuring the OD. The wound dressings with the enzymatic substrate absorbed were placed onto the agar and were incubated overnight (see FIGS. 2-7).

Pseudomonas aeruginosa = assay: Microbiological evaluation of standardised bacterial suspensions, modified wound dressing with absorbed substrate on agar; parameters: key to Observable colour change: − indicates no colour change; +− indicates relatively discernible blue colour change; + indicates a moderately strong blue colour change; ++ indicates a strong blue colour change
Protocol: as §1, §2
(§3) Bacterial strains were routinely cultured from working stocks in Tryptic Soy Broth (TSB) and incubated at 37° C. overnight with shaking at 150 RPM. Overnight cultures were centrifuged at 3000×g for 5 minutes, the supernatant discarded, and the pellet resuspended in 10 mL phosphate buffered saline (PBS). Bacterial inoculums were standardised by optical density at 600 nm on an Amersham Biosciences Ultrospec 10 spectrophotometer (Amersham Biosciences, Amersham, UK) to contain between 1 and 3×10^8 CFU/mL.
(§4) However, rapid evaluation of lower bacteria concentrations is essential for the desired clinical application. […] The solutions were absorbed into the wound dressing samples, which were dried overnight under vacuum at 40° C.
(§5) Two Gram negative strains (Escherichia coli—EC and Pseudomonas aeruginosa—PSA) and a Gram-positive bacterium (Staphylococcus aureus—SA) were evaluated. The bacteria were incubated overnight, centrifuged at 3000×g for 5 mins, the supernatant was discarded, and the residue pellets were resuspended in 10 mL PBS. The inoculums were standardised by measuring the optical density at 600 nm to assure a 1-3×10^8 CFU/mL. The standardised solutions were further diluted to prepare 1-3×10^6 and 1-3×10^4 CFU/mL suspension. 1×10^6 CFU would be an ideal breakpoint for a positive result, as this concentration coincides well with a level of colonisation that would likely go on to produce an infection.
(§6) 100 μL bacterial suspensions were smeared over agar plates. Wound dressing samples were added to the top of the agar and were rolled over a few times (to ensure a full coverage and to ease the visibility of the colour change). The plates were incubated at 37° C., and the results were recorded after 24 h, after 48 h, after 72 h. The results are shown in Table 3-5; − indicates no colour change, +− indicates relatively discernible blue colour change, + indicates a moderately strong blue colour change and ++ indicates a strong blue colour change.

Staphylococcus aureus [2] = assay: as above; parameters: key to Observable colour change: − indicates no colour change; +− indicates relatively discernible blue colour change; + indicates a moderately strong blue colour change; ++ indicates a strong blue colour change; conditions: for colour change: SA
Protocol: as §1, §2, §3, §4, §5, §6

## CCN(CC)c1ccc(NC(=O)[C@@H](N)CC(C)C)cc1.Cl [3b, (2S)-2-amino-N-[4-(diethylamino)phenyl]-4-methyl-pentanamide hydrochloride]
Staphylococcus aureus [1]; substrate 300 mg/L
  Observable colour change: None
Staphylococcus aureus [1]; substrate 600 mg/L
  Observable colour change: None
Staphylococcus aureus [1]; substrate 900 mg/L
  Observable colour change: None
Staphylococcus aureus [1]; substrate 3000 mg/L, hydrochloride
  Observable colour change: produced the colour change and Blue
Pseudomonas aeruginosa; PSA 10^4, substrate 300 mg/L, 24 h at 37° C.
  Observable colour change: −
Pseudomonas aeruginosa; PSA 10^4, substrate 300 mg/L, 48 h at 37° C.
  Observable colour change: −
Pseudomonas aeruginosa; PSA 10^4, substrate 300 mg/L, 72 h at 37° C.
  Observable colour change: +
Pseudomonas aeruginosa; PSA 10^4, substrate 900 mg/L, 24 h at 37° C.
  Observable colour change: −
Pseudomonas aeruginosa; PSA 10^4, substrate 900 mg/L, 48 h at 37° C.
  Observable colour change: −
Pseudomonas aeruginosa; PSA 10^4, substrate 900 mg/L, 72 h at 37° C.
  Observable colour change: ++
Pseudomonas aeruginosa; PSA 10^4, substrate 1500 mg/L, 24 h at 37° C.
  Observable colour change: −
Pseudomonas aeruginosa; PSA 10^4, substrate 1500 mg/L, 48 h at 37° C.
  Observable colour change: −
Pseudomonas aeruginosa; PSA 10^4, substrate 1500 mg/L, 72 h at 37° C.
  Observable colour change: ++
Pseudomonas aeruginosa; PSA 10^6, substrate 300 mg/L, 24 h at 37° C.
  Observable colour change: −
Pseudomonas aeruginosa; PSA 10^6, substrate 300 mg/L, 48 h at 37° C.
  Observable colour change: −
Pseudomonas aeruginosa; PSA 10^6, substrate 300 mg/L, 72 h at 37° C.
  Observable colour change: +
Pseudomonas aeruginosa; PSA 10^6, substrate 900 mg/L, 24 h at 37° C.
  Observable colour change: −
Pseudomonas aeruginosa; PSA 10^6, substrate 900 mg/L, 48 h at 37° C.
  Observable colour change: +−
Pseudomonas aeruginosa; PSA 10^6, substrate 900 mg/L, 72 h at 37° C.
  Observable colour change: ++
Pseudomonas aeruginosa; PSA 10^6, substrate 1500 mg/L, 24 h at 37° C.
  Observable colour change: −
Pseudomonas aeruginosa; PSA 10^6, substrate 1500 mg/L, 48 h at 37° C.
  Observable colour change: −
Pseudomonas aeruginosa; PSA 10^6, substrate 1500 mg/L, 72 h at 37° C.
  Observable colour change: +
Pseudomonas aeruginosa; PSA 10^8, 10^6 or 10^4 CFU, after 72 h, every tested substrate concentration
  colour change: moderate or strong blue colour changes
Pseudomonas aeruginosa; PSA 10^8, substrate 300 mg/L, 24 h at 37° C.
  Observable colour change: −
Pseudomonas aeruginosa; PSA 10^8, substrate 300 mg/L, 48 h at 37° C.
  Observable colour change: +
Pseudomonas aeruginosa; PSA 10^8, substrate 300 mg/L, 72 h at 37° C.
  Observable colour change: +
Pseudomonas aeruginosa; PSA 10^8, substrate 900 mg/L, 24 h at 37° C.
  Observable colour change: −
Pseudomonas aeruginosa; PSA 10^8, substrate 900 mg/L, 48 h at 37° C.
  Observable colour change: ++
Pseudomonas aeruginosa; PSA 10^8, substrate 900 mg/L, 72 h at 37° C.
  Observable colour change: ++
Pseudomonas aeruginosa; PSA 10^8, substrate 1500 mg/L, 24 h at 37° C.
  Observable colour change: −
Pseudomonas aeruginosa; PSA 10^8, substrate 1500 mg/L, 48 h at 37° C.
  Observable colour change: ++
Pseudomonas aeruginosa; PSA 10^8, substrate 1500 mg/L, 72 h at 37° C.
  Observable colour change: ++
Pseudomonas aeruginosa; PSA 10^8 CFU, 10^6 CFU, and 104 CFU, substrate 900 mg/L, printed in the 48 h paragraph
  colour change: strong blue colour changes
Pseudomonas aeruginosa; PSA 10^8 CFU, after 48 h incubation, substrate 900 or 1500 mg/L
  colour change: strong blue colour changes
Staphylococcus aureus [2]; SA 10^4, substrate 300 mg/L, 24 h at 37° C.
  Observable colour change: −
Staphylococcus aureus [2]; SA 10^4, substrate 300 mg/L, 48 h at 37° C.
  Observable colour change: −
Staphylococcus aureus [2]; SA 10^4, substrate 300 mg/L, 72 h at 37° C.
  Observable colour change: −
Staphylococcus aureus [2]; SA 10^4, substrate 900 mg/L, 24 h at 37° C.
  Observable colour change: −
Staphylococcus aureus [2]; SA 10^4, substrate 900 mg/L, 48 h at 37° C.
  Observable colour change: −
Staphylococcus aureus [2]; SA 10^4, substrate 900 mg/L, 72 h at 37° C.
  Observable colour change: −
Staphylococcus aureus [2]; SA 10^4, substrate 1500 mg/L, 24 h at 37° C.
  Observable colour change: −
Staphylococcus aureus [2]; SA 10^4, substrate 1500 mg/L, 48 h at 37° C.
  Observable colour change: −
Staphylococcus aureus [2]; SA 10^4, substrate 1500 mg/L, 72 h at 37° C.
  Observable colour change: −
Staphylococcus aureus [2]; SA 10^6, substrate 300 mg/L, 24 h at 37° C.
  Observable colour change: −
Staphylococcus aureus [2]; SA 10^6, substrate 300 mg/L, 48 h at 37° C.
  Observable colour change: −
Staphylococcus aureus [2]; SA 10^6, substrate 300 mg/L, 72 h at 37° C.
  Observable colour change: −
Staphylococcus aureus [2]; SA 10^6, substrate 900 mg/L, 24 h at 37° C.
  Observable colour change: −
Staphylococcus aureus [2]; SA 10^6, substrate 900 mg/L, 48 h at 37° C.
  Observable colour change: −
Staphylococcus aureus [2]; SA 10^6, substrate 900 mg/L, 72 h at 37° C.
  Observable colour change: −
Staphylococcus aureus [2]; SA 10^6, substrate 1500 mg/L, 24 h at 37° C.
  Observable colour change: −
Staphylococcus aureus [2]; SA 10^6, substrate 1500 mg/L, 48 h at 37° C.
  Observable colour change: −
Staphylococcus aureus [2]; SA 10^6, substrate 1500 mg/L, 72 h at 37° C.
  Observable colour change: +−
Staphylococcus aureus [2]; SA 10^8, substrate 300 mg/L, 24 h at 37° C.
  Observable colour change: −
Staphylococcus aureus [2]; SA 10^8, substrate 300 mg/L, 48 h at 37° C.
  Observable colour change: −
Staphylococcus aureus [2]; SA 10^8, substrate 300 mg/L, 72 h at 37° C.
  Observable colour change: −
Staphylococcus aureus [2]; SA 10^8, substrate 900 mg/L, 24 h at 37° C.
  Observable colour change: −
Staphylococcus aureus [2]; SA 10^8, substrate 900 mg/L, 48 h at 37° C.
  Observable colour change: −
Staphylococcus aureus [2]; SA 10^8, substrate 900 mg/L, 72 h at 37° C.
  Observable colour change: −
Staphylococcus aureus [2]; SA 10^8, substrate 1500 mg/L, 24 h at 37° C.
  Observable colour change: −
Staphylococcus aureus [2]; SA 10^8, substrate 1500 mg/L, 48 h at 37° C.
  Observable colour change: +−
Staphylococcus aureus [2]; SA 10^8, substrate 1500 mg/L, 72 h at 37° C.
  Observable colour change: +−
Staphylococcus aureus [2]; 48 h paragraph, substrate 1500 mg/L
  colour change: weak, but discernible colour change
Staphylococcus aureus [2]; after 72 h, substrate 1500 mg/L
  colour change: weak, hardly visible colour change
